{
  "source": "patent US6521209B1",
  "about": "“Bifunctional detection agents” (California Institute of Technology, priority 1996, dated 2003)",
  "origin": "cited, not measured here",
  "settings": "for stability constant (K), formation constant, logK: Gd(III) complex",
  "data": [
    {"smiles": "O=C([O-])CN1CCN(CC(=O)[O-])CCN(CC(=O)O)CCN(CC(=O)[O-])CC1.[Gd+3]", "note": "[Gd-DOTA]", "values": [
      {"measurement": "stability constant (K), formation constant, logK", "value": 28.5},
      {"measurement": "dissociation kinetics", "setting": "at physiological pH", "value": "very slow dissociation kinetics"}
    ]},
    {"smiles": "O=C([O-])CN(CCN(CC(=O)[O-])CC(=O)O)CCN(CC(=O)[O-])CC(=O)O.[Gd+3]", "note": "[Gd(DTPA)]", "values": [
      {"measurement": "stability constant (K), formation constant, logK", "value": 22.4}
    ]}
  ]
}
